This note sets out measurements from patent US11369697B2, “Liposome nanoparticles for tumor magnetic resonance imaging” (UNITED KINGDOM RESEARCH AND INNOVATION, priority 2009, dated 2022).

The nature of the series: T1 relaxation of Gd lipids in aqueous solution (MRI efficacy). The class given is physicochemical. Particulars: 0.5 mM, 4.7 T. The protocol:
In order to establish the relaxation properties of Gd.DOTA.DSA, MRI studies of the lipid in aqueous solution were performed and T1 values and relaxivity parameters generated in milliseconds. […] A standard T1 saturation recovery method (spin echo sequence) was used to determine T1 values (according to Eq. 1), where x is TR (time to repeat), and Si is the measured signal for a given TR. Si=S0(1−e^(−x/T^1^))
MRI Analysis of Gd.DOTA.DSA For T1 analysis, Gd.DOTA.DSA 4, Gd.DTPA.BSA, and controls of the metal free compound, and Magnevist (Schering A G, Germany) were added to water to give a final concentration of 0.5 mM. The solutions (200 μL) were placed in eppendorf tubes and T1 relaxation values measured on a 4.7 T Varian MR scanner at ambient temperature. For relaxivity measurements; gadolinium liposome formulations were prepared in order to obtain five different gadolinium concentrations between […] in 200 μL of distilled water and the molar relaxivity r1 (mM^−1 s^−1) determined. T1 values were obtained using saturation recovery experiments performed with a standard spin-echo sequence and a 2 mm single slice acquisition (TR=50, 100, 200, 300, 500, 700, 1200, 3000, 5000, 7000 ms, TE=15 ms), number of signal averages; 2, FOV; 70×70 mm^2, collected into a matrix of 256×128.

Take “Gadolinium (III) 2-{4,7-Bis-Carboxymethyl-10-[(N, N-Distearylamidomethyl-N′-Amido-Methyl]-1,4,7,10-Tetra-Azacyclododec-1-yl}-Acetic Acid [Gd.DOTA.DSA]”: the “T1 relaxation compared to Gd.DTPA.BSA lipid” value was “comparable, if slightly better”. The “efficacy compared to Magnevist and Gd.DTPA.BSA (T1 values)” value (lipid in aqueous solution, clinically relevant dose) is “compare favourably”.
